Tests used:
Assay in all cases: relative viability (nuclei count vs DMSO), 5 days (fraction); higher = more cells survive
Axitinib + Linsitinib = compound: CNC(=O)c1ccccc1Sc1ccc2c(/C=C/c3ccccn3)n[nH]c2c1 [Axitinib] + C[C@]1(O)C[C@@H](c2nc(-c3ccc4ccc(-c5ccccc5)nc4c3)c3c(N)nccn32)C1 [Linsitinib] (partner 1 µM)
Summary of the method: (§1)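 Lung cancer cell lines in 1536-well plates got either a single drug or a fixed anchor-drug dose together with five library-drug doses (not always all listed) in √10 steps, by pin tool, on the day after seeding. Nuclei were counted after 5 days, and relative viability is the treated-to-vehicle ratio of nuclei counts. Values are medians of duplicate plates.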

Bemcentinib + OSI-027 = compound: Nc1nc(Nc2ccc3c(c2)CC[C@@H](N2CCCC2)CC3)nn1-c1cc2c(nn1)-c1ccccc1CCC2 [Bemcentinib] + COc1cccc2cc(-c3nc([C@H]4CC[C@H](C(=O)O)CC4)n4ncnc(N)c34)[nH]c12 [OSI-027] (partner 0.5 µM)
Summary of the method: as §1

Bemcentinib + AZD7762 = compound: Nc1nc(Nc2ccc3c(c2)CC[C@@H](N2CCCC2)CC3)nn1-c1cc2c(nn1)-c1ccccc1CCC2 [Bemcentinib] + NC(=O)Nc1cc(-c2cccc(F)c2)sc1C(=O)N[C@H]1CCCNC1 [AZD7762] (partner 0.2 µM)
Summary of the method: as §1

Bemcentinib + Pemetrexed = compound: Nc1nc(Nc2ccc3c(c2)CC[C@@H](N2CCCC2)CC3)nn1-c1cc2c(nn1)-c1ccccc1CCC2 [Bemcentinib] + Nc1nc2[nH]cc(CCc3ccc(C(=O)N[C@@H](CCC(=O)O)C(=O)O)cc3)c2c(=O)[nH]1 [Pemetrexed] (partner 0.2 µM)
Summary of the method: as §1

Cell Line | relative viability (Axitinib + Linsitinib; first compound 0.005 µM) | relative viability (Axitinib + Linsitinib; first compound 0.01581 µM) | relative viability (Axitinib + Linsitinib; first compound 0.05 µM) | relative viability (Axitinib + Linsitinib; first compound 0.1581 µM) | relative viability (Axitinib + Linsitinib; first compound 0.5 µM) | relative viability (Bemcentinib + OSI-027; first compound 0.04 µM) | relative viability (Bemcentinib + OSI-027; first compound 0.1265 µM) | relative viability (Bemcentinib + OSI-027; first compound 0.4 µM) | relative viability (Bemcentinib + OSI-027; first compound 4 µM) | relative viability (Bemcentinib + AZD7762; first compound 0.04 µM) | relative viability (Bemcentinib + AZD7762; first compound 0.1265 µM) | relative viability (Bemcentinib + AZD7762; first compound 0.4 µM) | relative viability (Bemcentinib + AZD7762; first compound 1.265 µM) | relative viability (Bemcentinib + AZD7762; first compound 4 µM) | relative viability (Bemcentinib + Pemetrexed; first compound 0.04 µM) | relative viability (Bemcentinib + Pemetrexed; first compound 0.1265 µM) | relative viability (Bemcentinib + Pemetrexed; first compound 0.4 µM) | relative viability (Bemcentinib + Pemetrexed; first compound 1.265 µM) | relative viability (Bemcentinib + Pemetrexed; first compound 4 µM) | relative viability (Bemcentinib + OSI-027; first compound 1.265 µM)
HCC-78 | 0.602 | 0.414 | 0.52 | 0.526 | 0.479 | 0.343 | 0.348 | 0.38 | 0.371 | 0.633 | 0.717 | 0.556 | 0.672 | 0.614 | 0.923 | 1.01 | 0.942 | 0.895 | 0.95 | –
HCC-366 | 0.673 | 0.615 | 0.776 | 0.662 | 0.842 | 0.803 | 1.17 | 0.921 | 0.898 | 0.253 | 0.382 | 0.248 | 0.163 | 0.208 | 0.175 | 0.185 | 0.179 | 0.173 | 0.157 | 0.875
NCI-H520 | 0.972 | 0.996 | 0.989 | 0.84 | 1.03 | 0.237 | 0.24 | 0.262 | 0.258 | – | – | – | – | – | 0.65 | 0.848 | 0.788 | 0.686 | 0.785 | 0.247
NCI-H1355 | 0.834 | 0.811 | 0.845 | 0.865 | 0.819 | 0.379 | 0.412 | 0.46 | 0.44 | 0.742 | 0.742 | 0.78 | 0.834 | 0.576 | 1.06 | 1.16 | 1.13 | 1.03 | 1.04 | 0.399

Source: the supplement of paper PMC10307832
